Assay type in all cases: cell-based
Conditions in all cases: HEK293T cells, 5, 10 and 20 μM, 20 h

Test [1] has as its target T1, KRASG12D interaction with PI3Kα, PI3Kγ, CRAF RBD, RALGDS RA (Homo sapiens, UniProt P01116, G12D).
T1 construct: expressed in transfected cells; host or cells: HEK293T
Nature of the test: BRET2 cell assay, KRAS G12D-effector interaction. The source says: (§1) The BRET ratio corresponds to the light emitted by the GFP2 acceptor constructs (515 nm±30) upon addition of Coelenterazine 400a divided by the light emitted by the RLuc8 donor constructs (410 nm±80). The normalized BRET ratio is the BRET ratio normalized to the DMSO negative and calculated as follows: (BRETcompound/BRETDMSO)×100, where BRETcompound corresponds to the BRET ratio for the compound-treated cells, BRETDMSO to the DMSO-treated cells. Each experiment was repeated at least three times. Statistical analyses were performed using a one-way ANOVA followed by Dunnett's post-tests (*P<0.05, **P<0.01, ***P<0.001, ****P<0.0001). Where error bars are presented, they correspond to mean values±SD of biological repeats (a-c).
(§2) 650,000 HEK293T were seeded in each well of a 6 well plate. 24 hours later, cells were transfected with an appropriated BRET-based RAS biosensor (i.e. RAS-effector) using Lipofectamine 2000 transfection reagent (Thermo-Fisher). […] The final concentrations in the cells were 0, 5, 10 and 20 µM (therefore the intermediate 10× concentrations were 0, 50, 100 and 200 μM. 10 μL of 10× compounds were added in each well of the 96 well plate to 0, 5, 10 and 20 µM final concentrations (with final 0.2% DMSO each). Quadruplicates were performed for each point. Cells were left for an additional 20 hours at 37° C. before the BRET2 signal reading directly after addition of Coelenterazine 400a substrate (10 µM final) to cells (Cayman Chemicals, cat #16157). BRET2 reading was carried out on an Envision instrument (2103 Multilabel Reader, PerkinElmer) with the BRET2 Dual Emission optical module (515 nm±30 and 410 nm±80; PerkinElmer).
(§3) The ability of Example compound 56 to inhibit RAS-effector PPI using the above cell-based RAS-effector BRET2 assay was investigated. […] We determined the effect of compound 56 (labelled Abd-7) on the interaction of KRAS^G12D and with PI3Kα and PI3Kγ, CRAF RAS-binding domain (RBD) and RALGDS RAS-associating domain (RA) compared with the low affinity Reference Compound Abd-2 FIG. 1a). […]
(In general: BRET reads energy transfer from a luciferase to a nearby fluorophore.)

The target of test [2] is T2, NRASQ61H interaction with PI3K, CRAF, RALGDS (Homo sapiens, UniProt P01111, Q61H).
T2 construct: expressed in transfected cells; host or cells: HEK293T
Nature of the test: BRET2 cell assay, NRAS Q61H-effector interaction.
From the text: as §1
(§4) HEK293T cells were transfected 24 hr with plasmids expressing the NRAS Q61H […] and HRAS G12V (B, D) biosensors together with the indicated RBDs of PI3K, CRAF and RALGDS (A, B) or full-length CRAF. […]
as §2, with “plate.” for “plate. 24 hours later, cells were transfected with an appropriated BRET-based RAS biosensor (i.e. RAS-effector) using Lipofectamine 2000 transfection reagent (Thermo-Fisher).”
as §3

For test [3], the target named is T3, HRASG12V interaction with PI3K, CRAF, RALGDS (Homo sapiens, UniProt P01112, G12V).
T3 construct: expressed in transfected cells; host or cells: HEK293T
Nature of the test: BRET2 cell assay, HRAS G12V-effector interaction.
From the text: as §1, §4
as §2, with “plate.” for “plate. 24 hours later, cells were transfected with an appropriated BRET-based RAS biosensor (i.e. RAS-effector) using Lipofectamine 2000 transfection reagent (Thermo-Fisher).”
as §3

Here are results for one molecule from patent US12024506B2, “Compounds” (Oxford University Innovation Limited, priority 2018, dated 2024).

“Also recorded” adds a separate entry of the source.

With `O=C(NCC1COc2ccccc2O1)c1ccco1` (stereo not drawn) [Abd-2, reference compound], the “Effect on BRET signal, KRAS G12D/effector interactions” value in test [1] is listed as “no effect on the BRET signal; also recorded: not with the Abd-2”. In addition, in test [2], the “Effect on BRET signal, NRAS Q61H/effector interactions” value was “does not interfere with the BRET signal”. Also, in test [3], the “Effect on BRET signal, HRAS G12V/effector interactions” value is “does not interfere with the BRET signal”.
